The values below come from patent US6881741B2 (ViroChem Pharma Inc., priority 2001, dated 2005).

In this assay the target is recombinant HCV NS5B (HCV RNA-dependent RNA polymerase) (Hepatitis C virus genotype 1b, UniProt P26663). Briefly: biochemical.
Where [1] appears, read: related polymerase activity (Example 27 list), read-out: IC50.
Where [2] appears, read: HCV polymerase activity, list of compounds of Example 27, read-out: IC50 (polymerase activity).

Each structure is given as a SMILES string. Where two headings read alike, the source gives them in different places.

Chain of recombinant HCV NS5B (HCV RNA-dependent RNA polymerase) (P26663 2420-3010 limits assumed): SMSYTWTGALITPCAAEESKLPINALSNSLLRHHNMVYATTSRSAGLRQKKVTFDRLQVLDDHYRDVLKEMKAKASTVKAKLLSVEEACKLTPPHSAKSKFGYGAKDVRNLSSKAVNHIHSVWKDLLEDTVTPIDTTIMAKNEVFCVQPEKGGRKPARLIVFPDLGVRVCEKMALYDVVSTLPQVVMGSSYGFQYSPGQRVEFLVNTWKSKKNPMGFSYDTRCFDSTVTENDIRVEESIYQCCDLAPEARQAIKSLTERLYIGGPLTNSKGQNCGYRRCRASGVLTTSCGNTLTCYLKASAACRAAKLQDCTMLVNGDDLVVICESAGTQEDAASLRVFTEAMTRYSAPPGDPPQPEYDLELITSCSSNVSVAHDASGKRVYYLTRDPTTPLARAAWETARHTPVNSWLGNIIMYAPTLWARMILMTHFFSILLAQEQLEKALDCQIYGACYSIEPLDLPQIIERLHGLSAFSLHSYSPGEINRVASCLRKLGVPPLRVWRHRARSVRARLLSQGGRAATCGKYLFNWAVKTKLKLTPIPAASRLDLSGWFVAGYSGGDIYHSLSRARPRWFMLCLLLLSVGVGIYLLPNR

In the case of `Cc1ccc(-c2cc(NS(=O)(=O)c3ccccc3C)c(C(=O)O)s2)nc1` [Compound 184, 5-(5-METHYL-PYRIDIN-2-YL)-3-(TOLUENE-2-SULFONYLAMINO)-THIOPHENE-2-CARBOXYLIC ACID], under setting [1], the IC50 is below 5 µM.

As for `Cc1ccccc1S(=O)(=O)Nc1cc(-c2cccc(Cl)c2)sc1C(=O)O` [Compound 65, 5-(3-CHLORO-PHENYL)-3-(TOLUENE-2-SULFONYLAMINO)-THIOPHENE-2-CARBOXYLIC ACID], under setting [1], the IC50 is below 5 µM. Same read-out and setting: next, `O=C(O)c1sc(-c2ccccc2)cc1NS(=O)(=O)c1cc(F)c(Br)cc1F` [Compound 138, 3-(4-BROMO-2,5-DIFLUORO-BENZENESULFONYLAMINO)-5-PHENYL-THIOPHENE-2-CARBOXYLIC ACID]: below 5 µM; `Cc1ccc(S(=O)(=O)Nc2cc(-c3ccccc3)sc2C(=O)O)c([N+](=O)[O-])c1` [Compound 177, 3-(4-METHYL-2-NITRO-BENZENESULFONYLAMINO)-5-PHENYL-THIOPHENE-2-CARBOXYLIC ACID]: 5 to 20 µM; `CC(=O)Nc1nc(C)c(S(=O)(=O)Nc2cc(-c3ccccc3)sc2C(=O)O)s1` [Compound 139, 3-(2-ACETYLAMINO-4-METHYL-THIAZOLE-5-SULFONYLAMINO)-5-PHENYL-THIOPHENE-2-CARBOXYLIC ACID]: 5 to 20 µM. Take `CC(=O)N(Cc1cccc(C)c1)c1cc(-c2ccccc2)sc1C(=O)O` [Compound 434, 3-[ACETYL-(3-METHYL-BENZYL)-AMINO]- 5-PHENYL-THIOPHENE-2-CARBOXYLIC ACID]: the IC50 under setting [2] is 5 to 20 µM. For the molecule `CCCN(C(=O)c1ccc(C)cc1)c1cc(-c2ccc(CCC(=O)O)cc2)sc1C(=O)O` [Compound 318, 5-[4-(2-CARBOXY-ETHYL)-PHENYL]-3-[(4- METHYL-BENZOYL)-PROPYL-AMINO]- THIOPHENE-2-CARBOXYLIC ACID], under setting [1], the IC50 fell in the range of 5 to 20 µM. Take `CC(C)CC(=O)N(Cc1ccccc1)c1cc(-c2ccccc2)sc1C(=O)O` [Compound 453, 3-[BENZYL-(3-METHYL-BUTYRYL)- AMINO]-5-PHENYL-THIOPHENE-2- CARBOXYLIC ACID]: the IC50 under setting [2] is below 5 µM. With `C#Cc1cc(NS(=O)(=O)c2ccccc2C)c(C(=O)O)s1` [Compound 80, 5-ETHYNYL-3-(TOLUENE-2-SULFONYLAMINO)-THIOPHENE-2-CARBOXYLIC ACID], the IC50 under setting [1] was 5 to 20 µM.

As for `O=C(O)c1sc(-c2ccccc2)cc1NS(=O)(=O)c1ccc(Cl)c(Cl)c1Cl` [Compound 153, 5-PHENYL-3-(2,3,4-TRICHLORO-BENZENESULFONYLAMINO)-THIOPHENE-2-CARBOXYLIC ACID], under setting [1], the IC50 was below 5 µM. On to `Cc1ccc(CN(C(=O)C(C)C)c2cc(-c3ccccc3)sc2C(=O)O)cc1` [Compound 468, 3-[ISOBUTYRYL-(4-METHYL-BENZYL)- AMINO]-5-PHENYL-THIOPHENE-2- CARBOXYLIC ACID], for which the IC50 under setting [2] fell in the range of 5 to 20 µM. With `Cc1ccccc1S(=O)(=O)Nc1cc(-c2cccc(OC(F)(F)F)c2)sc1C(=O)O` [Compound 81, 3-(TOLUENE-2-SULFONYLAMINO)-5-(3-TRIFLUOROMETHOXY-PHENYL)-THIOPHENE-2-CARBOXYLIC ACID], the IC50 under setting [1] is 5 to 20 µM.

On to `CN(C(=O)c1cc2ccccc2s1)c1cc(-c2ccccc2)sc1C(=O)O` [Compound 251, 3-[(BENZO[B]THIOPHENE-2-CARBONYL)-METHYL-AMINO]-5-PHENYL-THIOPHENE-2-CARBOXYLIC ACID], for which the IC50 under setting [1] was in the range of 5 to 20 µM.

Turning to `CC1CCC(C(=O)N(c2cc(-c3ccccc3)sc2C(=O)O)C(C)C)CC1` (centres unmarked) [Compound 316, 3-[ISOPROPYL-(4-METHYL- CYCLOHEXANECARBONYL)-AMINO]-5- PHENYL-THIOPHENE-2-CARBOXYLIC ACID], for the setting “IC50”, the IC50 is above 20 µM. Turning to `CC(=O)c1ccc(-c2cc(N(C(=O)C3CCC(C)CC3)C(C)C)c(C(=O)O)s2)cc1` (centres unmarked) [Compound 460, 5-(4-ACETYL-PHENYL)-3-[ISOPROPYL-(4- METHYL-CYCLOHEXANECARBONYL)- AMINO]-THIOPHENE-2-CARBOXYLIC ACID], the IC50 under setting [2] is below 5 µM. On to `Cc1cc(C)c(C(=O)N(c2cc(-c3ccccc3)sc2C(=O)O)C(C)C)c(C)c1` [Compound 324, 3-[ISOPROPYL-(2,4,6-TRIMETHYL- BENZOYL)-AMINO]-5-PHENYL- THIOPHENE-2-CARBOXYLIC ACID], for which, under setting [1], the IC50 is 5 to 20 µM. As to `CC(C)N(C(=O)c1cc2c(Cl)cc(Cl)cc2[nH]1)c1cc(-c2ccccc2)sc1C(=O)O` [Compound 521, 3-[(4,6-DICHLORO-1#H!-INDOLE-2- CARBONYL)-ISOPROPYL-AMINO]-5- PHENYL-THIOPHENE-2-CARBOXYLIC ACID], under setting [2], the IC50 was below 5 µM. On to `Cc1ccccc1S(=O)(=O)Nc1cc(-c2cccnc2)sc1C(=O)O` [Compound 87, 5-PYRIDIN-3-YL-3-(TOLUENE-2-SULFONYLAMINO)-THIOPHENE-2-CARBOXYLIC ACID], for which the IC50 under setting [1] is below 5 µM. Same read-out and setting: next, `Cc1ccc(C(=O)N(C)c2cc(-c3ccccc3C)sc2C(=O)O)cc1` [Compound 267, 3-[METHYL-(4-METHYL-BENZOYL)-AMINO]-5-O-TOLYL-THIOPHENE-2-CARBOXYLIC ACID]: below 5 µM; `N#Cc1ccc(-c2cc(NS(=O)(=O)c3ccc(Cl)cc3)c(C(=O)O)s2)cc1` [Compound 289, 3-(4-CHLORO-BENZENESULFONYLAMINO)-5-(4-CYANO-PHENYL)-THIOPHENE-2-CARBOXYLIC ACID]: below 5 µM. As to `O=C(O)c1sc(-c2ccccc2)cc1NS(=O)(=O)c1ccc(C(F)(F)F)cn1` [Compound 98, 5-PHENYL-3-(5-TRIFLUOROMETHYL-PYRIDINE-2-SULFONYLAMINO)-THIOPHENE-2-CARBOXYLIC ACID], under setting [1], the IC50 lay within 5 to 20 µM. As to `O=C(O)c1sc(-c2ccccc2)cc1N(C(=O)c1ccc(Cl)cc1Cl)C1CCCC1` [Compound 201, 3-[CYCLOPENTYL-(2,4-DICHLORO-BENZOYL)-AMINO]-5-PHENYL-THIOPHENE-2-CARBOXYLIC ACID], the IC50 under setting [1] is below 5 µM. Consider `NC1CCCCC1N(C(=O)c1ccc(Cl)cc1Cl)c1cc(-c2ccccc2)sc1C(=O)O` (centres unmarked) [Compound 549, 2-[(2-CARBOXY-5-PHENYL-THIOPHEN-3-YL)- (2,4-DICHLORO-BENZOYL)-AMINO]- CYCLOHEXYL-AMMONIUM; CHLORIDE], for which, under setting [2], the IC50 was below 5 µM. On to `CN(C(=O)Cc1ccc(F)cc1)c1cc(-c2ccccc2)sc1C(=O)O` [Compound 173, 3-{[2-(4-FLUORO-PHENYL)-ACETYL]-METHYL-AMINO}-5-PHENYL-THIOPHENE-2-CARBOXYLIC ACID], for which the IC50 under setting [1] was below 5 µM. With `O=C(NC1CCC(N(C(=O)c2ccc(Cl)cc2Cl)c2cc(-c3ccccc3)sc2C(=O)O)CC1)OCc1ccccc1` (centres unmarked) [Compound 515, 3-[(4-BENZYLOXYCARBONYLAMINO- CYCLOHEXYL)-(2,4-DICHLORO- BENZOYL)-AMINO]-5-PHENYL- THIOPHENE-2-CARBOXYLIC ACID], under setting [2], the IC50 is below 5 µM. Consider `Cc1c(S(=O)(=O)Nc2cc(-c3ccccc3)sc2C(=O)O)sc2ccc(Cl)cc12` [Compound 38, 3-(5-CHLORO-3-METHYL-BENZO[ B ]THIOPHENE-2-SULFONYLAMINO)-5-PHENYL-THIOPHENE-2-CARBOXYLIC ACID], for which the IC50 under setting [1] is below 5 µM. Consider `CC(C)CC(=O)N(Cc1ccc([N+](=O)[O-])cc1)c1cc(-c2ccccc2)sc1C(=O)O` [Compound 419, 3-[(3-METHYL-BUTYRYL)-(4-NITRO- BENZYL)-AMINO]-5-PHENYL-THIOPHENE- 2-CARBOXYLIC ACID], for which the IC50 under setting [2] was below 5 µM. Regarding `CC(C)N(C(=O)c1ccccc1Cl)c1cc(-c2ccccc2)sc1C(=O)O` [Compound 218, 3-[(2-CHLORO-BENZOYL)-ISOPROPYL-AMINO]-5-PHENYL-THIOPHENE-2-CARBOXYLIC ACID], the IC50 under setting [1] was in the range of 5 to 20 µM. Take `CC(C)C(=O)N(Cc1ccc(Cl)cc1)c1cc(-c2ccccc2)sc1C(=O)O` [Compound 457, 3-[(4-CHLORO-BENZYL)-ISOBUTYRYL- AMINO]-5-PHENYL-THIOPHENE-2- CARBOXYLIC ACID]: the IC50 under setting [2] lay within 5 to 20 µM. `O=C(NC1CCC(N(C(=O)c2ccc(Cl)cc2Cl)c2cc(-c3ccccc3)sc2C(=O)O)CC1)OCc1ccccc1` (centres unmarked) [Compound 512, 3-[(4-BENZYLOXYCARBONYLAMINO- CYCLOHEXYL)-(2,4-DICHLORO- BENZOYL)-AMINO]-5-PHENYL- THIOPHENE-2-CARBOXYLIC ACID]: under setting [2], the half-maximal inhibitory concentration (IC50) is below 5 µM. For `O=C(O)c1sc(-c2ccccc2)cc1N(Cc1ccccc1)C(=O)C1CC1` [Compound 454, 3-(BENZYL-CYCLOPROPANECARBONYL- AMINO)-5-PHENYL-THIOPHENE-2- CARBOXYLIC ACID], under setting [2], the concentration for half-maximal inhibition (IC50) is below 5 µM. With `O=C(O)c1sc(-c2ccc(F)cc2)cc1NS(=O)(=O)c1ccc(F)cc1F` [Compound 110, 3-(2,4-DIFLUORO-BENZENESULFONYLAMINO)-5-(4-FLUORO-PHENYL)-THIOPHENE-2-CARBOXYLIC ACID], the IC50 under setting [1] is below 5 µM. As for `CCC(=O)N(Cc1ccccc1C)c1cc(-c2ccccc2)sc1C(=O)O` [Compound 427, 3-[(2-METHYL-BENZYL)-PROPIONYL- AMINO]-5-PHENYL-THIOPHENE-2- CARBOXYLIC ACID], the IC50 under setting [2] was 5 to 20 µM. As to `CCC(=O)N(Cc1cccc(OC)c1)c1cc(-c2ccccc2)sc1C(=O)O` [Compound 471, 3-[(3-METHOXY-BENZYL)-PROPIONYL- AMINO]-5-PHENYL-THIOPHENE-2- CARBOXYLIC ACID], the IC50 under setting [2] is above 20 µM. Regarding `O=C(Nc1cc(-c2ccccc2)sc1C(=O)O)c1cccs1` [Compound 74, 5-PHENYL-3-[(THIOPHENE-2-CARBONYL)-AMINO]-THIOPHENE-2-CARBOXYLIC ACID], under setting [1], the half-maximal inhibitory concentration (IC50) lay within 5 to 20 µM.

Consider `Cc1ccccc1S(=O)(=O)Nc1cc(C#C[Si](C)(C)C)sc1C(=O)O` [Compound 79], for which, under setting [1], the IC50 was below 5 µM. For the molecule `O=C(O)c1sc(-c2ccccc2)cc1N(C(=O)c1ccc(Cl)cc1Cl)C1CCCNC1` (centres unmarked) [Compound 514, 3-[(2,4-DICHLORO-BENZOYL)-PIPERIDIN- 3-YL-AMINO]-5-PHENYL-THIOPHENE-2- CARBOXYLIC ACID; COMPOUND WITH GENERIC INORGANIC NEUTRAL COMPONENT], the IC50 under setting [2] is below 5 µM. As for `CN(C(=O)Cc1ccccc1)c1cc(-c2ccccc2)sc1C(=O)O` [Compound 175, 3-(METHYL-PHENYLACETYL-AMINO)-5-PHENYL-THIOPHENE-2-CARBOXYLIC ACID], the IC50 under setting [1] is below 5 µM.

Usually IC50 stands for the concentration needed to halve the response being measured.
